The test system of series [1] is influenza A virus (H1N1, A/WSN/33). The series can be described thus: Efficacy on mice, IAV mouse infection model. Type of series: in vivo, BALB/c mice. Conditions: 15 mpk orally twice a day; for Body weight change: infected mice, during the experiment; for Mean difference of virus titer compared with the menstruum group: mice, 5th day after virus infection. From the text: Female BALB/c mice were inoculated with influenza A virus (H1N1, A/WSN/33) by intranasal administration to establish an IAV mouse infection model. Menstruum, the compound of formula (1) (15 mpk) or oseltamivir phosphate (15 mpk) were orally administered twice a day. Animal weight and survival status were monitored daily during the test, and on the 5th day, some animals were sacrificed to take lung tissue for virus titer detection, and the remaining mice were used for survival rate monitoring. The in vivo anti-influenza virus efficacy of the test compound was determined by virus titer in lung tissue, mouse body weight change and survival rate.

The nature of series [2]: Mechanical stability: XRPD before and after jet milling. Type of series: physicochemical. Conditions: jet milled to D90≤10 μm. The text has this:
In addition, 224.90 g of the above compound of the formula (1) was jet milled (feed pressure 0.4 to 0.5 MPa, milling pressure 0.18 to 0.22 MPa) to give 212.00 g sample with a particle size of D90≤10 μm.

The nature of series [3]: Hygroscopicity by dynamic vapour sorption (DVS). The class given is physicochemical. The method, then: • Instrument model: Bruker D8 Venture single-crystal diffractometer • Light source: Mo target • X-ray: Mo—K (=0.71073 Å) • Detector: CMOS based detector • Resolution: 0.84 Å • Current and voltage: 50 kV, […] 2. X-Ray Powder Diffraction (XRPD) • Instrument model: PANalytical X'Pert3 Power • X-ray: Cu, Kα, Kα1 (Å): 1.540598; Kα2 (Å): 1.544426 • X-ray tube setting: 45 kV, 40 mA • Divergence slit: 1/8° • Scan pattern: continuous • Scanning range (2θ): 3°-40° • Scan step size (2θ): 0.0263° 3. Differential Scanning Calorimetry (DSC) • Instrument model: TA Q2000/2500 differential scanning calorimeter • Heating rate: 10° C./min • Temperature range: 25° C. to setting end-point temperature • Shielding gas: nitrogen 4. Thermogravimetric Analysis (TGA) • Instrument model: TA Q5000/5500 thermogravimetric analyzer • Heating rate: 10° C./min • Temperature range: room temperature to setting end-point temperature • Shielding gas: nitrogen 5. Dynamic Vapour Sorption (DVS) • Instrument model: SMS DVS Intrinsic vapour sorption analyzer • Temperature: 25° C. • RH range: 0% RH-95% RH • Shielding gas: nitrogen

A short description of series [4]: Solid state stability of the crystal form (XRPD, HPLC). The class given is physicochemical. The method, then: The crystal form F samples of the compound of formula (1) were placed at 60° C. for 30 days, at 25° C./92.5% RH for 30 days, and exposed to light for 15 days, respectively. The physical and chemical stability of the samples were tested by XRPD and HPLC.

The mark [5] stands for this setting: Light (white light 4500 Lux, ultraviolet light 90 μw/cm^2)/15 days.

In the case of `COC(=O)OCOc1c2n(ccc1=O)N([C@@H]1c3ccccc3SCc3c1ccc(F)c3F)[C@@H]1COC3(CC3)CN1C2=O` [Compound of formula (1), (((R)-12′-((S)-7,8-difluoro-6,11-dihydrodibenzo[b,e]thiepin-11-yl)-6′,8′-dioxo-6′,8′,12′,12a′-tetrahydro-1′H,4′H-spiro[cyclopropane-1,3′-[1,4]oxazino[3,4-c]pyrido[2,1-f][1,2,4]triazin]-7′-yl)oxy)methyl methyl carbonate], in series [1], the Body weight change entry is reported as “remained stable during the experiment, had no significant decline” and the “Mean difference of virus titer compared with the menstruum group” value is 3.92 Log10 (plaques number/gram of.
For the molecule `COC(=O)OCOc1c2n(ccc1=O)N([C@@H]1c3ccccc3SCc3c1ccc(F)c3F)[C@@H]1COC3(CC3)CN1C2=O` [crystal form F], the “Crystal form before and after milling (XRPD)” value in series [2] was “does not change”. Moreover, the “Crystal form before and after the DVS test (XRPD)” value in series [3] (DVS at 25° C.) is given as “did not change”. The same molecule came in with a Moisture-absorption weight gain in series [3] (DVS, 25° C./80% RH) of 0.10%. In series [4] (25° C./92.5% RH/30 days), the Appearance and character entry is “White”; the Crystal form change result is “No”; the “Purity (area %)” value came out at 99.0 area %; the “Purity/initial (%)” value worked out at 100.4%. In series [4] (60° C./30 days), the Appearance and character result is on record as “White”; the Crystal form change result was “No”; the “Purity (area %)” value came out at 98.7 area %; the “Purity/initial (%)” value worked out at 100.1%. Further, in series [4] (Initial), the Appearance and character entry is given as “White”; the Crystal form change result is listed as “No”; the “Purity (area %)” value turned out to be 98.6 area %. In series [4] (setting [5]), the Appearance and character result was “White”; the Crystal form change result is listed as “No”; the “Purity (area %)” value stood at 98.5 area %; the “Purity/initial (%)” value was 99.9%.
Regarding `CCOC(=O)C1=C[C@@H](OC(CC)CC)[C@H](NC(C)=O)[C@@H](N)C1` [Oseltamivir phosphate, oseltamivir phosphate, reference compound], in series [1], the Body weight change entry is given as “remained stable during the experiment, had no significant decline” and the “Mean difference of virus titer compared with the menstruum group” value was 3.46 Log10 (plaques number/gram of.

The values are drawn from patent US12583867B2, “Pyridone derivative crystal form and preparation method and application therefor” (priority 2019, dated 2026).
